Source: patent US8658592B2, “Biologically active peptides and their new uses” (priority 2005, dated 2014)
Marks after values point to notes of the source that are not given here. Square brackets hold non-standard residues; d marks the D form. Ends that are not written are not given here. Tyr(3,5-Br2) = N[C@@H](Cc1cc(Br)c(O)c(Br)c1)C(=O)O

Experiments:
[1] = system: Balb/c mice swimming time model; assay: exhaustive swimming time of mice (Example 11); assay type: in vivo; conditions: 20 μg/kg/day i.p., 30 days
Method: Balb/c male mice were randomized into groups of CMS-001.30 (20 μg/kg/day), CMS-001.31 (20 μg/kg/day), EPO (1000 u/kg/day, three times per week), and saline control. The test substance was dissolved in 0.5 ml saline and applied intraperitoneally once per day for 30 continuous days (EPO was replaced with saline if EPO was not applied). On the tenth day, the mice were trained to swim for 10 min at water temperature of 25±1° C. 30 min after the last test substance administration, the mice were placed to swim in the swimming tank (50 cm×50 cm×40 cm). The depth of water was 30 cm and water temperature 25±1° C. The limbs of the mice were kept moving in the whole process. The swimming (min) time of the mice until death was recorded. Exhaustive swimming time extension rate (ESTR) (%)=(Mean exhaustive swimming time of test group−Mean exhaustive swimming time of saline control)/(Mean exhaustive swimming time of saline control)×100%. 1.4 Statisitics

[2] = system: BALB/c mice exhaustive swimming model; assay: exhaustive swimming time of mice; assay type: in vivo; conditions: 30 days
Method: (§1) The mice were randomized into groups of CMS-001 (20 μg/kg/day, 5 μg/kg/day), CMS-008 (500 μg/kg/day, 125 μg/kg/day), and saline control. The test substance was administered by intraperitoneal injection once per day for 30 continuous days. A week after the start the of the test substance administration, the mice were trained to swim for 10 min, at water temperature of 25±1° C.
30 min after the last injection, the mice were weighed, and lead pieces corresponding to 5% of the body weight were wrapped to the tails of the mice at about 1 cm away from the body. The mice were placed in the swimming tank, at water depth of 30 cm and temperature of 25±1° C. The limbs of the mice were kept moving in the whole process. The time of swimming until the death was recorded.

BALB/c mice [3] = assay: serum urea nitrogen level after exercise; assay type: in vivo
Method: as §1, with “C. 30 min after the last injection, the mice were placed to swim in the swimming tank without addition of weight for 90 min, at water depth of 30 cm temperature of 30±1° C. The mice were then allowed to rest for 30 min, and blood was collected from the orbital sinus. The serum was isolated and the BUN was determined by a fully automated Biochemistry Analyser.” for “C.”

BALB/c mice [4] = assay: liver glycogen level of mice; assay type: in vivo
Method: The mice were randomized into groups of CMS-001 (20 μg/kg/day, 5 μg/kg/day), CMS-008 (500 μg/kg/day, 125 μg/kg/day), and saline control. The test substance was administered by intraperitoneal injection once per day for 30 continuous days. A week after the start the of the test substance administration, the mice were trained to swim for 10 min, at water temperature of 25±1° C. 30 min after the last injection, the mice were killed by cervical dislocation and the liver was dissected, washed with saline, and blotted dry with filter paper. About 100 mg liver was accurately weighed and the liver glycogen level was determined by the Anthracene Ketone reagent kit. Glycogen weight (mg) in every 100 g of liver=DU/DS×0.5×homogenization liquid vol./liver weight(g)×100×0.9.

BALB/c mice [5] = assay: blood lactic acid level of mice after exercise; assay type: in vivo; conditions: for Lactic acid elimination after rest: 20 min rest
Method: as §1
30 min after the last injection, 20 μl of blood was first collected from the orbital sinus. The mice were then weighed, and lead pieces corresponding to 4% of the body weight were wrapped to the tails of the mice at about 1 cm away from the body. The mice were placed to swim in the swimming tank for 10 min, at water depth of 30 cm and temperature of 30±1° C. The limbs of the mice were kept moving in the whole process. Immediately after the exercise and after resting for 20 min, 20 μl of blood was collected from the orbital sinus again. The blood was added into 40 μl hypotonic buffer and sonicated. Lactic acid level in the blood was determined by the lactic acid analyzer.
The amount of lactic acid increase after exercise is calculated based on the amount of lactic acid level immediately after exercise minus the lactic acid level before exercise.
The amount of lactic acid elimination after rest was calculated based on the amount of lactic acid level immediately after exercise minus the lactic acid level after rest.

BALB/c mice [6] = assay: serum SOD, MDA, AST, ALT levels after exhaustive exercise; assay type: in vivo
Method: The mice were randomized into groups of CMS-001 (20 μg/kg/day, 5 μg/kg/day), CMS-008 (500 μg/kg/day, 125 μg/kg/day), and saline control. The test substance was administered by intraperitoneal injection once per day for 30 continuous days. A week after the start the of the test substance administration, the mice were trained to swim for 10 min, at water temperature of 25±1° C. 30 min after the last injection, the mice were placed to swim in the swimming tank without addition of weight at water depth of 30 cm and temperature of 25±1° C.^[4]. By the first time the mice sunk, the mice were rescued and blood was collected from the orbital sinus immediately. The serum was isolated and the MDA, SOD, AST, and ALT levels determined.

hepatocarcinoma H22 = assay: survival of mice transplanted with H22 hepatocarcinoma; assay type: in vivo, BALB/c mice
Method: Healthy BALB/c mice were randomized into groups of CMS-024.04, CMS-025.05, CMS-024.14, and CMS-024.16 (80 μg/kg/day), 5-Fu (20 mg/kg/day, once for every two days), saline (0.2 ml/day), and normal group (without tumor cell inoculation).
Mice inoculated with hepatocarcinomas for 6-8 days were sacrificed. The ascites was collected and the cell concentration adjusted to 5×10^7/ml with D-Hanks' solution. 0.2 ml of this was inoculated intraperitoneally to each BALB/c mouse except for the normal controls.
Administration of test substance was started on the next day after the tumor cell inoculation. The peptides and saline were applied daily and 5-FU once every two days for 60 continuous days or until the death of the mice.
The time of death was recorded and survival time prolongation calculated. Survival time prolongation was calculated as below: Survival prolongation (%)=(Average survival days of test group)−(Average survival days of saline control group)/(Average survival days of saline group)×100%.

[7] = system: human gastric carcinoma BGC-823 xenograft; assay: nude mice-transplanted human gastric carcinoma BGC-823 xenograft; assay type: in vivo, BALB/c (nu/nu) nude mice; conditions: 20 mg/Kg/day i.p., 30 days
Method: Hunan gastric carcinoma cell line BGC-823 at log phase were adjusted to the concentration of 2×10^7/ml and then inoculated subcutaneously to the back of nude mice (0.1 ml per mouse). The inoculated animals were randomized into groups of CMS024-16 (160 μg/kg/day, 320 μg/kg/day, and 640 μg/kg/day, all at 0.2 ml/day), positive control (5-Fu, 20 mg/kg/day at 0.2 ml/day), and negative control (normal saline, 0.2 ml/day). Administration of test substances by intraperitoneal injection was started on the next day after tumor implantation once per day for 30 continuous days. On the next day after the last injection, the tumor masses were collected and their weights determined Inhibition rate=(Mean weight of negative control−Mean weight of test group)/(Mean weight of negative control)×100%

[8] = Table 6.2 experiment, 80 μg/kg daily i.p.
[9] = Table 6.1 experiment, 20 mg/kg once every two days
[10] = Table 6.2 experiment, 20 mg/kg once every two days

Question: With PTTKTYFP [CMS-001.31] as the compound, how does the “ESTR (exhaustive swimming time extension rate)” value [1] read?
Answer: Its value is 76.0* %.

Question: How did the Swimming time ([2]; 125 μg/kg/day i.p.) turn out when KAVGHLDDLPGAL [CMS-008] was run?
Answer: The Swimming time was 106.5 ± 19.4 min.

Question: What about the Swimming-time extension ([2]; 125 μg/kg/day i.p.) of the same compound?
Answer: The Swimming-time extension was 57.9* %.

Question: And the Swimming time ([2]; 500 μg/kg/day i.p.)?
Answer: Its Swimming time is 116.5 ± 17.7 min.

Question: And the Swimming-time extension ([2]; 500 μg/kg/day i.p.)?
Answer: Its Swimming-time extension is 72.7* %.

Question: What about the “Urea Nitrogen” value (BALB/c mice [3]; 125 μg/kg/day) of the same compound?
Answer: Its value is 7.2 ± 2.3 mmol/L.

Question: What about the “Urea Nitrogen” value (BALB/c mice [3]; 500 μg/kg/day) of the same compound?
Answer: Its value is 7.1 ± 2.0 mmol/L.

Question: What about the liver glycogen (BALB/c mice [4]; 125 μg/kg/day) of the same compound?
Answer: Its liver glycogen is 1275 ± 726 mg/100 g liver tissue.

Question: What about the liver glycogen (BALB/c mice [4]; 500 μg/kg/day) of the same compound?
Answer: The liver glycogen was 1408 ± 457 mg/100 g liver tissue.

Question: And the “Lactic acid increase after exercise” value (BALB/c mice [5]; 125 μg/kg/day)?
Answer: Its value is 2.70 ± 0.15 mmol/L.

Question: What about the “Lactic acid increase after exercise” value (BALB/c mice [5]; 500 μg/kg/day) of the same compound?
Answer: The value was 2.23 ± 0.30 mmol/L.

Question: What about the “Lactic acid elimination after rest” value (BALB/c mice [5]; 125 μg/kg/day) of the same compound?
Answer: Its value is 3.62 ± 0.57 mmol/L.

Question: What about the “Lactic acid elimination after rest” value (BALB/c mice [5]; 500 μg/kg/day) of the same compound?
Answer: The value was 3.71 ± 0.22 mmol/L.

Question: What about the ALT (BALB/c mice [6]; 500 μg/kg/day) of the same compound?
Answer: Its ALT is 32.9 ± 5.2 U/L.

Question: And the AST (BALB/c mice [6]; 500 μg/kg/day)?
Answer: Its AST is 116.6 ± 18.8 U/L.

Question: What about the MDA (BALB/c mice [6]; 500 μg/kg/day) of the same compound?
Answer: Its MDA is 4.1 ± 0.4 nmol/L.

Question: And the SOD (BALB/c mice [6]; 500 μg/kg/day)?
Answer: Its SOD is 415.7 ± 31.5 U/ml.

Question: With PTTKTYFPHF [CMS-001] as the compound, how does the Swimming time ([2]; 5 μg/kg/day i.p.) read?
Answer: Its Swimming time is 105.7 ± 19.8 min.

Question: And the Swimming-time extension ([2]; 5 μg/kg/day i.p.)?
Answer: Its Swimming-time extension is 56.7* %.

Question: What about the Swimming time ([2]; 20 μg/kg/day i.p.) of the same compound?
Answer: Its Swimming time is 99.8 ± 30.6 min.

Question: What about the Swimming-time extension ([2]; 20 μg/kg/day i.p.) of the same compound?
Answer: The Swimming-time extension was 48.0* %.

Question: What about the “Urea Nitrogen” value (BALB/c mice [3]; 5 μg/kg/day) of the same compound?
Answer: The value was 6.9 ± 1.6 mmol/L.

Question: What about the “Urea Nitrogen” value (BALB/c mice [3]; 20 μg/kg/day) of the same compound?
Answer: The value was 7.3 ± 2.1 mmol/L.

Question: And the liver glycogen (BALB/c mice [4]; 5 μg/kg/day)?
Answer: The liver glycogen was 439 ± 271 mg/100 g liver tissue.

Question: And the liver glycogen (BALB/c mice [4]; 20 μg/kg/day)?
Answer: The liver glycogen was 1567 ± 604 mg/100 g liver tissue.

Question: And the “Lactic acid increase after exercise” value (BALB/c mice [5]; 5 μg/kg/day)?
Answer: The value was 2.60 ± 0.33 mmol/L.

Question: And the “Lactic acid increase after exercise” value (BALB/c mice [5]; 20 μg/kg/day)?
Answer: The value was 2.56 ± 0.41 mmol/L.

Question: What about the “Lactic acid elimination after rest” value (BALB/c mice [5]; 5 μg/kg/day) of the same compound?
Answer: Its value is 2.96 ± 0.33 mmol/L.

Question: And the “Lactic acid elimination after rest” value (BALB/c mice [5]; 20 μg/kg/day)?
Answer: Its value is 3.14 ± 0.64 mmol/L.

Question: What about the ALT (BALB/c mice [6]; 20 μg/kg/day) of the same compound?
Answer: Its ALT is 32.7 ± 3.0 U/L.

Question: And the AST (BALB/c mice [6]; 20 μg/kg/day)?
Answer: Its AST is 117.0 ± 19.2 U/L.

Question: What about the MDA (BALB/c mice [6]; 20 μg/kg/day) of the same compound?
Answer: The MDA was 4.4 ± 0.2 nmol/L.

Question: What about the SOD (BALB/c mice [6]; 20 μg/kg/day) of the same compound?
Answer: Its SOD is 400.6 ± 45.6 U/ml.

Question: With “(3,5-dibromo-Tyr)-Ser-Leu ([Tyr(3,5-Br2)]-Ser-Leu) [CMS-024.14]” as the compound, how does the “survival of mice transplanted with H22 tumor cells” value (hepatocarcinoma H22; 80 μg/kg/day, vs saline control P<0.05) read?
Answer: Its value is “prolong the survival”.

Question: What about the “Survival Prolongation” value (hepatocarcinoma H22; [8]) of the same compound?
Answer: Its value is 50.3%.

Question: What about the “Survival time (first column)” value (hepatocarcinoma H22; [8]) of the same compound?
Answer: The value was 16.0 ± 0.0 days.

Question: And the “Survival time (second column)” value (hepatocarcinoma H22; [8])?
Answer: The value was 27.6 ± 8.5 days.

Question: With `O=c1[nH]cc(F)c(=O)[nH]1` [5-Fu, 5-fluorouracil, reference compound] as the compound, how does the Inhibition rate [7] read?
Answer: Its Inhibition rate is 40.8* %.

Question: And the Tumor weight [7]?
Answer: The Tumor weight was 1.70 ± 0.70 g.

Question: And the “Survival Prolongation” value (hepatocarcinoma H22; [9])?
Answer: Its value is 84.5* %.

Question: What about the “Survival time (first column)” value (hepatocarcinoma H22; [9]) of the same compound?
Answer: The value was 30.0 ± 2.0 days.

Question: What about the “Survival time (second column)” value (hepatocarcinoma H22; [9]) of the same compound?
Answer: The value was 32.5 ± 6.3 days.

Question: And the “Survival Prolongation” value (hepatocarcinoma H22; [10])?
Answer: Its value is 33.3%.

Question: What about the “Survival time (first column)” value (hepatocarcinoma H22; [10]) of the same compound?
Answer: Its value is 18.0 ± 0.4 days.

Question: And the “Survival time (second column)” value (hepatocarcinoma H22; [10])?
Answer: The value was 24.5 ± 11.1 days.
